{"source": "patent US11806402B2", "about": "“Sulfoalkyl ether cyclodextrin compositions” (CyDex Pharmaceuticals, Inc., priority 2008, dated 2023)", "test": "Assay and impurity analysis (HPLC) of heat-stressed SBE6.6-β-CD/glucocorticosteroid (budesonide) formulation", "format": "physicochemical", "conditions": "glucocorticosteroid standard, no SBE6.6-β-CD lot", "protocol": "Comparative evaluation of the stability of various lots of SBE6.6-β-CD that underwent a single or a double treatment with activated carbon (according to Examples 27 and 24, respectively) were formulated with a glucocorticosteroid (budesonide) and an excipient (water), and were examined by HPLC. The general procedure is provided below.\nSBE6.6-β-CD solutions (7.5% w/w, formulated with SBE6.6-β-CD Lot Nos. 17CX01.HQ00025, 17CX01.HQ00029 and 17CX01.HQ00041), were prepared by dissolving about 7.5 grams of SBE6.6-β-CD (corrected for water content) in 100 mL of water. A glucocorticosteroid was weighed in amounts in excess of the anticipated solubilities directly into TEFLON®-lined screw-capped containers. Approximately 275 μg/mL of the glucocorticoid steroid was vigorously stirred for 2 hours in an amber glass container. At the end of the agitation time, the glucocorticosteroid solution was filtered using a 0.24 μm syringe filter.\nControl solution samples were removed before autoclaving. Aliquots of the solutions were autoclaved for four 20 minute cycles at 121° C. The samples were then analyzed by HPLC to determine assay content and the level of impurities formed during the heating cycles. Solution samples of SBE6.6-β-CD were prepared and analyzed on a PERKIN ELMER Lambda 35 UV/Vis spectrophotometer, scanning from 190 nm to 400 nm at a speed of 240 nm/min and a slit width of 1.0 nm to determine the UV content."}
{"smiles": "CCCC1O[C@@H]2C[C@H]3[C@@H]4CCC5=CC(=O)C=C[C@]5(C)[C@H]4[C@@H](O)C[C@]3(C)[C@]2(C(=O)CO)O1", "note": "(stereo partly drawn) [Glucocorticosteroid (“GS”) Std., budesonide]", "values": [{"measurement": "Assay GS Total", "value": 99.385, "unit": "Area %"}, {"measurement": "Assay R-GS", "value": 51.888, "unit": "Area %"}, {"measurement": "Assay S-GS", "value": 47.497, "unit": "Area %"}, {"measurement": "Assay Δ", "value": 0, "unit": "%"}, {"measurement": "Impurities A", "value": 0.001, "unit": "Area %"}, {"measurement": "Impurities B (S-11-keto-derivative)", "value": 0.127, "unit": "Area %"}]}
